Paper PMC5530453, “Anti-Parkinson Drug Biperiden Inhibits Enzyme Acetylcholinesterase” (BioMed Research International, 2017)

Target: Acetylcholinesterase (AChE) (Electrophorus electricus, UniProt O42275)
Experiment: Ellman's assay with purchased electric eel AChE, Dixon plot
Assay type: biochemical

Chain of Acetylcholinesterase (AChE) (O42275 24-633): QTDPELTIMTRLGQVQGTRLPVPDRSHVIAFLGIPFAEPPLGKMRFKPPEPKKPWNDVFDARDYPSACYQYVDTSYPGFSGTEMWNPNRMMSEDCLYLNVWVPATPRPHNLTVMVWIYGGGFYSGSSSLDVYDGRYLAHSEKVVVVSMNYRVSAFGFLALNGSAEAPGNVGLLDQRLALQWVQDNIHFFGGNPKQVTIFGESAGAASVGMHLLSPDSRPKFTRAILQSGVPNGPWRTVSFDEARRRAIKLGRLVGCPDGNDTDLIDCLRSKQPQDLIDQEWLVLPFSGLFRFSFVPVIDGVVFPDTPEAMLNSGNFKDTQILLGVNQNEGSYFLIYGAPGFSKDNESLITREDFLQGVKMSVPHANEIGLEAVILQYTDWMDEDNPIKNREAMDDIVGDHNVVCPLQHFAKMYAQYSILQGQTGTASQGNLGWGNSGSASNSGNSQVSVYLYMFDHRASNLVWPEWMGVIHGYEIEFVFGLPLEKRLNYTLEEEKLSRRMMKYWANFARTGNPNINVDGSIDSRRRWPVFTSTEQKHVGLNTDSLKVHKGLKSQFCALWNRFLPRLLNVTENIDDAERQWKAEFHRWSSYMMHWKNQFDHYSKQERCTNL

In the case of `OC(CCN1CCCCC1)(c1ccccc1)C1CC2C=CC1C2` (stereo not drawn) [Biperiden, alpha-bicyclo[2.2.1]hept-5-en-2-yl-alpha-phenyl-1-piperidinepropanol], the Ki is reported as 1110 ± 200 µM.
